Here are results for 1 compound from patent US11291739B2, “System and methods for sterilizing enclosed spaces using ozone” (Gene Therapy Systems, Inc., priority 2015, dated 2022).

One data set deals with bacteriophage T1. Kind of data set: Effect of ozone on bacteriophage T1 spotted on LB agar plates. The data set is classed as cell-based. The note with it: ozone 4 hours, peak less than 150 ppm, silver-coated mesh generator; 10^6-10^9 pfu/mL spots; DH5 E. coli overlay, 72 hours. How it is done:
In Experiment 2, the effect of ozone on bacteriophage T1 was studied. In the experiment, 2.5 μL of purified bacteriophage T1 was spotted in four quadrants of two LB agar plates—a test plate 610 and a control plate 620, shown in FIG. 11. The bacteriophage concentrations on each of the two plates were (clockwise from the spot in the upper right quadrant): 10^9 pfu/mL, 10^8 pfu/mL, 10^7 pfu/mL, and 10^6 pfu/mL.
The test plate 610 was placed in an incubator chamber containing both an ozone generator and an ozone degrader. The ozone generator included two ceramic plates surrounded substantially by a silver-coated metal mesh. The ozone generator was activated and the test plate 610 was treated with ozone for 4 hours. The ozone generator was then turned off, and the ozone degrader, formed of activated carbon filters, accelerated the conversion of ozone to oxygen. The peak ozone concentration level generated within the incubator chamber was less than 150 ppm ozone.
The control plate 620 was placed in a different incubator chamber and left untreated. After the ozone generation and degradation cycle completed in the incubator chamber containing the test plate 610, 1 mL of stationary DH5 E. coli bacteria and top agar were added to each plate and incubated at room temperature for 72 hours. The photograph in FIG. 11 was taken immediately following this 72-hour period.

For data set [1] the following is noted: cited from earlier work.
Data set [2] in a line: Ozone breakdown over time in enclosed cell culture chamber (calibrated ozone analyzer). It counts as physicochemical. How it is done:
In Experiment 1, an 1800 mg/hour ozone generator was placed in a 5.5 cubic feet cell culture. The ozone level within the chamber was monitored using a calibrated ozone analyzer. Ozone measurements were captured every 10 seconds. The experimental results, as represented by ozone level over time, are provided in the line graph of FIG. 10A. In test #1, represented by line 510, the ozone generator was run for 80 minutes and achieved a peak ozone concentration within the cell culture chamber of approximately 325 ppm. After the ozone generator was turned off, the ozone was left to break down naturally within the enclosed cell culture chamber. It took approximately 28 hours for the ozone to breakdown to 0.01 ppm ozone.
In tests #2 and #3, represented by lines 520 and 530, respectively, both the ozone generator and an ozone degrader were present in the cell culture chamber. The ozone degrader was formed of three activated carbon filters. With the ozone degrader present, the ozone generator was unable to achieve the peak ozone concentration seen in test #1. In tests #2 and #3, the ozone generator was run for 120 minutes and the concentration of ozone noticeably plateaued. The air within the cell culture chamber reached a peak ozone concentration of approximately 140-150 ppm ozone. […]

Data set [3] concerns E. coli K-12 cells (strain DH5). Kind of data set: Sterilization efficacy on LB agar plates loaded with E. coli in cell culture chamber. The data set is classed as cell-based. Here is the method: In tests #2 and #3, represented by lines 520 and 530, respectively, both the ozone generator and an ozone degrader were present in the cell culture chamber. The ozone degrader was formed of three activated carbon filters. With the ozone degrader present, the ozone generator was unable to achieve the peak ozone concentration seen in test #1. In tests #2 and #3, the ozone generator was run for 120 minutes and the concentration of ozone noticeably plateaued. The air within the cell culture chamber reached a peak ozone concentration of approximately 140-150 ppm ozone. After the ozone generator was turned off, the ozone began to break down at an accelerated rate with the activated carbon filters present. In both tests #2 and #3, the ozone levels reached a level of 0.01 ppm ozone within 15 minutes.
While the peak ozone concentrations reached in tests #2 and #3 were noticeably lower than the peak ozone concentration of test #1, the ozone levels in tests #2 and #3 were at least sufficient to achieve sterilization. In each of tests #2 and #3, sterilization efficacy was measured with the assistance of LB agar plates loaded with E. coli bacteria. As part of the experiment, E. coli K-12 cells (strain DH5) were grown overnight at 37° C. and the stationary phase was reached. […] The quantity of E. coli present was then analyzed and a photograph of each plate was taken.

Structures are written as SMILES. Like-named read-outs stand apart in the source and are kept apart here.

One may read the half-life as the time needed for the level to fall by half in the phase considered. Turning to `O=[O+][O-]` [ozone], in the data set with bacteriophage T1, the “survival of the T1-phage” value is “negligible survival”. Further, the half-life is 36 to 72 h in data set [1] (in the air) and 0.13 to 0.5 h in data set [1] (in water). For the same compound, the “time for ozone to break down to 0.01 ppm” value in data set [2] (test #1, natural breakdown from approximately 325 ppm, no ozone degrader, 5.5 cubic feet chamber) is listed as “approximately 28 hours”. Also, the “time for ozone levels to reach 0.01 ppm” value in data set [2] (tests #2 and #3, from approximately 140-150 ppm, three activated carbon filters present) was at most 15 min. Further, in data set [3] (test #2, ozone 120 minutes, peak approximately 140-150 ppm, then 15 minutes degradation, plates incubated at 37° C. overnight), the “E. coli kill rate” value was found to be 100%. For the same compound, the “quantity of E. coli present after treatment” value in data set [3] (test #2 test dish, control dish showed confluent growth) is “no E. coli was detected”.
